Results as given in paper PMC7022596, “Identification of the NADP^+ Structural Binding Site and Coenzyme Effect on the Fused G6PD::6PGL Protein from Giardia lamblia” (Biomolecules, 2019).

Target: T1, fused G6PD::6PGL protein (Giardia duodenalis, UniProt A8BWM5)
T1 construct: gene GL50803_008682; natural fusion of G6PD and 6PGL domains in one open reading frame; pET-3a/g6pd::6pgl in E. coli BL21(DE3)Δzwf::kan^r; 2',5'-ADP Sepharose and Sephacryl 200; dimer
T1 sequence (A8BWM5 1-742): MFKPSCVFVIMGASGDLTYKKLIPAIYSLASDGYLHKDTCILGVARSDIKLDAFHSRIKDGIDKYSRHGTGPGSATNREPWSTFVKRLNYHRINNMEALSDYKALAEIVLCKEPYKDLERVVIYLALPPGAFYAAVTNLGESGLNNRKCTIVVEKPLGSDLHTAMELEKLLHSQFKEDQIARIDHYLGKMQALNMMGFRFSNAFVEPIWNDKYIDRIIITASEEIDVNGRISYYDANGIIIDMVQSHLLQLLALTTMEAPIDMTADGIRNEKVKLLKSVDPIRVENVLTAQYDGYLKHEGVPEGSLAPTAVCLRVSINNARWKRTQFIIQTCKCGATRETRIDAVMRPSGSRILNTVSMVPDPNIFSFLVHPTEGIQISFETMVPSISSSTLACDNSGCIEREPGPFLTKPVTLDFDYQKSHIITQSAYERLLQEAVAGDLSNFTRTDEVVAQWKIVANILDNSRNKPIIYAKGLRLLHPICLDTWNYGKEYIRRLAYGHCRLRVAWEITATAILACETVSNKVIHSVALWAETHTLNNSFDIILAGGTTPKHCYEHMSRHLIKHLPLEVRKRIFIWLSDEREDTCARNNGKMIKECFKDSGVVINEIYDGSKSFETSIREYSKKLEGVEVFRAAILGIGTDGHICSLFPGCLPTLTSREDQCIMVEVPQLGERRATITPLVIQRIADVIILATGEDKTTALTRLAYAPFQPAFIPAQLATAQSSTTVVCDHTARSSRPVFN
Assay: intrinsic tryptophan fluorescence quenching titration
Assay type: binding

NC(=O)c1ccc[n+]([C@@H]2O[C@H](COP(=O)(O)OP(=O)(O)OC[C@H]3O[C@@H](n4cnc5c(N)ncnc54)[C@H](OP(=O)(O)O)[C@@H]3O)[C@@H](O)[C@H]2O)c1 [NADP^+]
Kd: 63.2 nM
